Where a SMILES comes first, the peptide text is derived from it. [ ]: non-standard residue; d: D form. Phe(2-Me) = Cc1ccccc1C[C@H](N)C(=O)O
Legend:
[1] = tested on: spleen cells; test: Spontaneous proliferation of spleen cells (3H-thymidin capture); assay type: cell-based, murine; details: for spontaneous proliferation of spleen cells (captured 3H-thymidin): 72 hrs
[2] = tested on: RAW 264.7 macrophage line cells; test: NO production by RAW 264.7 macrophage line cells stimulated with LPS (Greiss test); assay type: cell-based
Experimental: Upon completion of incubation, the culture medium in all wells of the plate was replaced with 0.25 ml of fresh medium. […] Polymixin B (Calbiochem) (PMB) in the same concentrations was used as the positive control of the inhibition of the LPS effect. The prepared mixture was then added at 0.25 ml increments to the wells of the culture plate at least in two parallel experiments. A mixture of LPS and the culture medium was added to the control wells. The cells were cultivated for 24 hrs. in a CO2 incubator. NO production was measured based on the total nitrite level in the culture medium in the Greiss test by using a commercial reagent (Sigma) according to the manufacturer's specifications.

[3] = tested on: thymus cells; test: Spontaneous proliferation of thymus cells (3H-thymidin capture); assay type: cell-based, murine; details: 72 hrs
[4] = tested on: spleen cells stimulated with LPS; assay type: cell-based, murine
[5] = tested on: red blood cells; assay type: cell-based
Experimental: The mixture was then diluted with a phosphate (PBS) buffer (0.015 M Na2HPO4, 0.15 M NaCl, pH 7.4). Samples of peptides in specific concentrations in PBS were placed in wells of a 96-well plate, and a red cell suspension in PBS was added to the samples. The red cell concentration was 1%. PBS was used as the negative control (no hemolysis). The positive control (100% hemolysis) −0.1% triton X-100 in PBS. The plates were incubated for three hours at 37° C. under 5% CO2 and centrifuged. The supernatant was transferred to a clean plate. The intensity of the hemoglobin release from the destroyed red blood cells was determined on a tablet spectrophotometer “Victor-2” (Finland) at λ-450 nm. […] All measurements were made thrice.

[6] = tested on: type 2 herpes simplex virus, strain G (ATCC VR-734, USA); test: Protective activity in lethal herpes infection caused in mice by vaginal infection; assay type: in vivo
[7] = stimulated with 0.04 ml of LPS, peptide 0.4 μg/ml
[8] = stimulated with 0.04 ml of LPS, peptide 2 μg/ml
[9] = stimulated with 0.04 ml of LPS, peptide 10 μg/ml
[10] = stimulated with 0.2 ml of LPS, peptide 0.4 μg/ml
[11] = stimulated with 0.2 ml of LPS, peptide 2 μg/ml
[12] = stimulated with 0.2 ml of LPS, peptide 10 μg/ml
[13] = mice, n = 15, applied once a day on days 1-5 post infection, followed 18 days

Compound	spontaneous proliferation of spleen cells (captured 3H-thymidin) ([1]; peptide 0.08 μg/ml) [imp/min]	spontaneous proliferation of spleen cells (captured 3H-thymidin) ([1]; peptide 0.4 μg/ml) [imp/min]	spontaneous proliferation of spleen cells (captured 3H-thymidin) ([1]; peptide 2 μg/ml) [imp/min]	spontaneous proliferation of spleen cells (captured 3H-thymidin) ([1]; peptide 10 μg/ml) [imp/min]	NO production inhibition [2, 7] [%]	NO production inhibition [2, 8] [%]	NO production inhibition [2, 9] [%]	NO production inhibition [2, 10] [%]	NO production inhibition [2, 11] [%]	NO production inhibition [2, 12] [%]	spontaneous proliferation of thymus cells (captured 3H-thymidin) ([3]; peptide 0.08 μg/ml) [imp/min]	spontaneous proliferation of thymus cells (captured 3H-thymidin) ([3]; peptide 0.4 μg/ml) [imp/min]	spontaneous proliferation of thymus cells (captured 3H-thymidin) ([3]; peptide 2 μg/ml) [imp/min]	spontaneous proliferation of thymus cells (captured 3H-thymidin) ([3]; peptide 10 μg/ml) [imp/min]	dose at which hemolysis was not induced [5]	also measured
Polymixin B [PMB]	1488 ± 497	1548 ± 140	2051 ± 167	2051 ± 456	44	85	94	11	62	98	255 ± 68	197 ± 10	197 ± 12	201 ± 66	–	–
CC[C@H](C)[C@H](N)C(=O)N[C@@H](CC(C)C)C(=O)N1CCC[C@H]1C(=O)N[C@H](Cc1ccccc1)C(=O)N[C@@H](CCCCN)C(=O)N[C@H](Cc1ccccc1)C(=O)N1CCC[C@H]1C(=O)N[C@H](Cc1ccccc1)C(=O)N[C@H](Cc1ccccc1)C(=O)N1CCC[C@H]1C(=O)N[C@H](Cc1ccccc1)C(=O)N[C@@H](CCCNC(=N)N)C(=O)N[C@@H](CCCNC(=N)N)C(N)=O [Peptide 6, H-Ile-Leu-Pro-D-Phe-Lys-D-Phe-Pro-D-Phe-D-Phe-Pro-D-Phe-Arg-Arg-NH2] (H-ILP[dF]K[dF]P[dF][dF]P[dF]RR-NH2)	1530 ± 510	1615 ± 248	1854 ± 236	3279 ± 177	0	1	8	1	10	7	306 ± 103	246 ± 48	298 ± 63	736 ± 161	exceeding 200 μg/ml	effect on spontaneous proliferation of splenocytes (in words) ([1]; 2-10 μg/ml dose range): statistically significant enhancement of the spontaneous proliferation of splenocytes; effect on NO production stimulated by LPS (in words) ([2]; 10-0.4 μg/ml doses): inhibited the NO production; effect on splenocyte proliferation stimulated with lipopolysaccharide (in words) [4]: inhibited the LPS effect
CC[C@H](C)[C@H](N)C(=O)N[C@@H](CC(C)C)C(=O)N1CCC[C@H]1C(=O)N[C@@H](Cc1ccccc1C)C(=O)N[C@@H](CCCCN)C(=O)N[C@@H](Cc1ccccc1C)C(=O)N1CCC[C@H]1C(=O)N[C@@H](Cc1ccccc1C)C(=O)N[C@@H](Cc1ccccc1C)C(=O)N1CCC[C@H]1C(=O)N[C@@H](Cc1ccccc1C)C(=O)N[C@@H](CCCNC(=N)N)C(=O)N[C@@H](CCCNC(=N)N)C(N)=O [Peptide 11, H-Ile-Leu-Pro-(2-Me)Phe-Lys-(2-Me)Phe-Pro-(2-Me)Phe-(2-Me)Phe-Pro-(2-Me) Phe-Arg-Arg-NH2] (H-ILP[Phe(2-Me)]K[Phe(2-Me)]P[Phe(2-Me)][Phe(2-Me)]P[Phe(2-Me)]RR-NH2)	–	–	–	–	–	–	–	–	–	–	–	–	–	–	exceeding 200 μg/ml	–
Nc1nc2c(ncn2COCCO)c(=O)[nH]1 [Acyclovir]	–	–	–	–	–	–	–	–	–	–	–	–	–	–	–	Number of Dead animals [6, 13]: 4; Number of Survived animals [6, 13]: 11; Mortality ([6]; mice, n = 15, followed 18 days): 26.7%; Increase in ALS ([6]; versus virus control group): 2.5

— patent US11059860B2, “Biocidal peptide and preparation based thereon” (“VERTA RESEARCH-PRODUCTION COMPANY” LTD, priority 2017, dated 2021)
